Assay results from ChEMBL document CHEMBL5724914, “Linking interpersonal differences in gut microbiota composition and drug biotransformation activity” (2024).

Key:
[1] = (§1) The drug is tested on Z-030 corresponding to mouse gut metagenome with ENA study accession number: PRJEB37062 and ENA sample accession number: ERS12561829 for biotransformation under anaerobic condition. The drug concentrations were measured over 9 timepoints collected between 0 and 24 hours of incubation by liquid-chromatography-coupled mass spectrometry (LC–MS); details: 2 µM
[2] = as §1, with “Z-025” for “Z-030”, “rabbit” for “mouse”, “ERS12561824” for “ERS12561829”; details: 2 µM
[3] = as §1, with “Z-020” for “Z-030”, “rabbit” for “mouse”, “ERS12561819” for “ERS12561829”; details: 2 µM
[4] = as §1, with “Z-005” for “Z-030”, “to” for “to mouse gut”, “ERS12561805” for “ERS12561829”; details: 2 µM
[5] = as §1, with “Z-004” for “Z-030”, “to” for “to mouse gut”, “ERS12561804” for “ERS12561829”; details: 2 µM
[6] = as §1, with “WLS-350” for “Z-030”, “human” for “mouse”, “ERS12561789” for “ERS12561829”; details: 2 µM
[7] = as §1, with “WLS-082” for “Z-030”, “human” for “mouse”, “ERS12561751” for “ERS12561829”; details: 2 µM
[8] = as §1, with “WLS-073” for “Z-030”, “human” for “mouse”, “ERS12561749” for “ERS12561829”; details: 2 µM
[9] = as §1, with “WLS-006” for “Z-030”, “human” for “mouse”, “ERS12561741” for “ERS12561829”; details: 2 µM
[10] = human gut metagenome, 24 h, 2 µM
[11] = human gut metagenome, 24 h, 2 µM; remark: listed apart in the source
[12] = human gut metagenome, 24 h, 2 µM; remark: listed apart in the source
[13] = human gut metagenome, 24 h, 2 µM; remark: listed apart in the source
[14] = human gut metagenome, 24 h, 2 µM; remark: listed apart in the source
[15] = human gut metagenome, 24 h, 2 µM; remark: listed apart in the source
[16] = human gut metagenome, 24 h, 2 µM; remark: listed apart in the source
[17] = human gut metagenome, 24 h, 2 µM; remark: listed apart in the source
[18] = human gut metagenome, 24 h, 2 µM; remark: listed apart in the source
[19] = human gut metagenome, 24 h, 2 µM; remark: listed apart in the source
[20] = human gut metagenome, 24 h, 2 µM; remark: listed apart in the source

Measured: Bacterial Biotransformation
Further: call rule not given here.

Cc1cc2c(cc1S(N)(=O)=O)S(=O)(=O)CCC2
Compound NOT metabolized: all assays above

CN1CCc2c(c3ccccc3n2Cc2ccccc2)C1.CN1CCc2c(c3ccccc3n2Cc2ccccc2)C1.O=S(=O)(O)c1cccc2c(S(=O)(=O)O)cccc12
Compound metabolized: [2] | [10] | [11]
Compound NOT metabolized: all other assays above

CN1CC(=O)N2[C@H](c3ccc4c(c3)OCO4)c3[nH]c4ccccc4c3C[C@@H]2C1=O
Compound NOT metabolized: [1] | [2] | [3] | [4] | [8] | [14] | [15] | [17] | [19]
Compound metabolized: all other assays above

COc1cc2nc(N(C)CCCNC(=O)C3CCCO3)nc(N)c2cc1OC (stereo not given) [ALFUZOSIN]
Compound metabolized: [6] | [7] | [8] | [9] | [11] | [13] | [16] | [17] | [18] | [20]
Compound NOT metabolized: all other assays above

NC12CC3CC(CC(C3)C1)C2 [AMANTADINE]
Compound metabolized: [2]
Compound NOT metabolized: all other assays above

CC(C)(C#N)c1cc(Cn2cncn2)cc(C(C)(C)C#N)c1 [ANASTROZOLE]
Compound metabolized: [6] | [10] | [11] | [13] | [16]
Compound NOT metabolized: all other assays above

O=P(O)(O)O.c1ccc(CN(CC2=NCCN2)c2ccccc2)cc1 [ANTAZOLINE PHOSPHATE]
Compound metabolized: [5] | [9] | [13] | [16] | [17] | [18] | [20]
Compound NOT metabolized: all other assays above

CN1CCC(=C2c3ccccc3CCc3cccnc32)CC1.O=C(O)/C=C\C(=O)O.O=C(O)/C=C\C(=O)O [AZATADINE MALEATE]
Compound NOT metabolized: all assays above
